Source: patent US12473273B2, “Quinoline compounds and compositions for inhibiting EZH2” (Novartis AG, priority 2020, dated 2025)

How the values were obtained:
[1] = test system: H3K27 methylation in G401 cell; assay: ELISA (H3K27 methylation) assay; assay type: cell-based; details: Homo sapiens, G-401, 48 h, cultured 48 h with compound, normalized using H3 signal
Method: ELISA (H3K27 methylation) assay
Representative compounds of the invention were serially and separately diluted 3-fold in DO to obtain a total of eight or twelve concentrations. Then the compounds were added to G401 cell cultured in 384-well plate at 1:500 dilution to obtain the highest concentration of 20 μM. The cells were further cultured for 48 h before ELISA procedure.
Histone extraction: Cells, in 384-well plate, were washed with PBS (10 x PBS buffer (80 g NaCl (Sigma, S3014), 2 g KCl (Sigma, 60128), 14.4 g Na2HPO4 (Sigma, S5136), 2.4 g KH2PO4 (Sigma, P9791) to 1 L water, pH to 7.4) and lysed with the addition of lysis buffer (0.4N HCl; 45 μl per well). The plate was gently agitated at 4° C. for 30 min. The cell lysate was neutralized with neutralization buffer (0.5 M sodium phosphate dibasic, pH 12.5. 1 mM DTT; 36 µL per well). The plate was agitated to ensure the lysates were well mixed prior to the ELISA protocol.
ELISA protocol: Cell lysates were transferred to the wells of a 384-well plate and the final volume was adjusted to 50 μL per well with PBS. The plate was sealed, centrifuged at 2,000 rpm for 2 min and incubated at 4° C. for about 16 h. The plate was washed with TBST buffer (1 x TBS (10x TBS: 24.2 g Tris (Sigma, T6066), 80 g NaCl (Sigma, S3014) to 1 L of water and adjust pH to 7.6 with HCl) with 0.1% Tween-20). Blocking buffer (TBST, 5% BSA; 50 µL per well) was added and the plate was incubated for 1 h at rt. The blocking buffer was removed and primary antibody was added (30 μL per well). The following dilutions were performed with blocking buffer: for anti-H3K27me3 antibody (Cell Signaling Technology, #9733), dilution was 1:1000; for anti-H3K27me2 antibody (Cell Signaling Technology, #9288), dilution was 1:100; for anti-H3 antibody (Abcam, Cat #24834), dilution was 1:1000. The primary antibody was incubated in the plate at rt for 1 h. The wells were washed with TBST and incubated with secondary antibody for 1 h at rt. For secondary antibodies, the following dilutions were carried out with blocking buffer: anti-rabbit antibody (Jackson ImmunoResearch, #111-035-003), dilution was 1:2000; and anti-mouse antibody (Cell signaling technology, #7076), dilution was 1:1000.
After 1 h of incubation at rt, the wells were washed with TBST. ECL substrate (Pierce, #34080) was added at 30 μL per well and the plates were centrifuged at 2,000 rpm for 2 min. The signal was read using a PerkinElmer Envision Reader. The H3K27 methylation readouts were normalized using H3 signal and then percentage inhibition was calculated against the samples treated with DO. The data were fit to a dose response curve using the program Helios to get the IC50 values of the test compound.

[2] = molecular target: wild type PRC2 (wtPRC2) complex (Homo sapiens, UniProt Q15910); assay: EZH2 LC-MS Assay; assay type: biochemical; details: 40 nM wtPRC2 complex, 30 uM SAM, 1.5 uM H3K27me1 and 3 uM H3K27me3 peptides; SAH production
Chain of wild type PRC2 (wtPRC2) complex (Q15910 whole entry): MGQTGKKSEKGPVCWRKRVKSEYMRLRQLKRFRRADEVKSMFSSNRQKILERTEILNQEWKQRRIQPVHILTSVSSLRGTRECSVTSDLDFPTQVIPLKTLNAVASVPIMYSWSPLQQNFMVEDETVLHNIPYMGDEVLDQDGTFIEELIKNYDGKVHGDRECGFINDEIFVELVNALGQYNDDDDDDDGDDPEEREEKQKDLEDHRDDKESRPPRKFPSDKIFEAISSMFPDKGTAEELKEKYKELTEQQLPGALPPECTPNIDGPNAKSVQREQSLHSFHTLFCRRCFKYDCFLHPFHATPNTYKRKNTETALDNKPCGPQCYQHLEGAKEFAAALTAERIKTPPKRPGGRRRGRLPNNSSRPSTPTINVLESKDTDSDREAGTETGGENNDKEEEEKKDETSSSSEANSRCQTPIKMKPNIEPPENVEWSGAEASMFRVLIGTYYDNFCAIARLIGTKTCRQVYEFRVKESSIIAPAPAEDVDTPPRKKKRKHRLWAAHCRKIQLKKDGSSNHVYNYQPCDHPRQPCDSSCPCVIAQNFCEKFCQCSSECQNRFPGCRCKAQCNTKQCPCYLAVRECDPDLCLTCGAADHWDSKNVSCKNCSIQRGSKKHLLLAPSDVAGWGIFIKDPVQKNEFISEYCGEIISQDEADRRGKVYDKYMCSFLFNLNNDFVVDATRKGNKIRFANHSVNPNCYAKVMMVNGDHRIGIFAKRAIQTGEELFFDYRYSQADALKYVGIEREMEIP
Chain of wild type PRC2 (wtPRC2) complex (O75530 whole entry partner): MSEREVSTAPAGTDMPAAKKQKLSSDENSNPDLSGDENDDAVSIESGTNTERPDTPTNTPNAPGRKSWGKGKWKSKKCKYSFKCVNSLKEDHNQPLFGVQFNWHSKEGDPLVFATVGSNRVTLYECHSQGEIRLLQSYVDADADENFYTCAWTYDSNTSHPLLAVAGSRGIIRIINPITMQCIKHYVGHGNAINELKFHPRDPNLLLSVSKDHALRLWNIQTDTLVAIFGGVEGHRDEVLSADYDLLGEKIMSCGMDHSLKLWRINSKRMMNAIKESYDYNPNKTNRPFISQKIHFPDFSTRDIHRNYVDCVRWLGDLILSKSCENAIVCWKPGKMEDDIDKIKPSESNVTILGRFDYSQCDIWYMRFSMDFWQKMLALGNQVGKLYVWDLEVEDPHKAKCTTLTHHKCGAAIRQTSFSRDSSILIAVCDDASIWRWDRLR
Chain of wild type PRC2 (wtPRC2) complex (Q15022 whole entry partner): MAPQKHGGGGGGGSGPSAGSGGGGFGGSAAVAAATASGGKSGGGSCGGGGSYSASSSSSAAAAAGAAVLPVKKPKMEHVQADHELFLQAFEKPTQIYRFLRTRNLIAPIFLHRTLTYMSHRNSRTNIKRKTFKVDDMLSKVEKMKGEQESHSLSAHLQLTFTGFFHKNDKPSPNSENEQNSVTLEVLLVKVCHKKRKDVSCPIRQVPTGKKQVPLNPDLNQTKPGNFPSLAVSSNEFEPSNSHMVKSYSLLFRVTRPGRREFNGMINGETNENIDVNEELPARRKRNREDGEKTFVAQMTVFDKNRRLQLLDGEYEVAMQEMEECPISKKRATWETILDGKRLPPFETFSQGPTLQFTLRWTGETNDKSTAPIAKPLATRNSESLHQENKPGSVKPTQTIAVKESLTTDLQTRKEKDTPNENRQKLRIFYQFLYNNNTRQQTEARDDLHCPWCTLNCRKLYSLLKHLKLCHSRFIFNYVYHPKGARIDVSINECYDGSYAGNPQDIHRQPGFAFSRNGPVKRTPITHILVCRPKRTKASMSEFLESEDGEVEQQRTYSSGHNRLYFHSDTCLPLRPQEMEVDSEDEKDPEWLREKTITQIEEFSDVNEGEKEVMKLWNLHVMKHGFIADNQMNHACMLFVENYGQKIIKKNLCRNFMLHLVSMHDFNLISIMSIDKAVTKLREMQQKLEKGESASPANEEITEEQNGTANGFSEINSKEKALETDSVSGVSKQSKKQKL
Method: Representative compounds of the invention were serially and separately diluted 3-fold in DMSO to obtain twelve concentrations. Then the test compounds at each concentration (120 nL of each) were transferred by Mosquito into a 384-well Perkin Elmer ProxiPlate 384 plus plates. Solutions (6 μL) of 80 nM wild type PRC2 (wtPRC2) complex and 60 µM SAM in reaction buffer (20 mM Tris, pH 8.0, 0.1% BSA, 0.01% Triton, 0.5 mM DTT) were added to the wells that were then incubated with the test compound for 20 min. A 6 μL solution of 3 µM of the substrate peptide H3K27me1 (histone H3 [21-44]-K27me1-biotin) and 6 μM regulatory peptide H3K27me3 (histone H3 [21-44]-K27me3) in reaction buffer was added to initiate each reaction. The final components in the reaction solution include 40 nM wtPRC2 complex, 30 µM SAM, 1.5 µM H3K27me1 and 3 µM H3K27me3 peptides with varying concentration of the compounds. A positive control consisted of the enzyme at 40 nM, 30 μM SAM, 1.5 µM H3K27me1 and 3 µM H3K27me3 in the absence of the test compound, and a negative control consisted of 30 µM SAM, 1.5 µM H3K27me1 and 3 μM H3K27me3 only. Each reaction was incubated at room temperature for 120 min, then stopped by addition of 3 μL per of quench solution (2.5% TFA with 320 nM d4-SAH). The reaction mixture was centrifuged (Eppendorf centrifuge 5810, Rotor A-4-62) for 2 min at 2000 rpm and read on an API 4000 triple quadrupole mass spec with Turbulon Spray (Applied Biosystem) coupled with Prominence UFLC (Shimadzu). The levels of SAH production were normalized based on the values coming from the positive and negative controls to give percent enzyme activities. The data were fit to a dose response equation using the program Helios to get the […] values of the test compound.

Cc1ccc2ccc(N[C@H]3CC[C@H](CNc4ccc(CC(=O)NC5COC5)cn4)CC3)nc2c1Cl [Example 15, 2-(6-((((1r,4r)-4-((8-chloro-7-methylquinolin-2-yl)amino)cyclohexyl)methyl)amino)pyridin-3-yl)-N-(oxetan-3-yl)acetamide]
IC50 [1]: < 10 nM | IC50 [2]: < 50 nM
